Patent publication US4120947A, “Xanthine compounds and method of treating bronchospastic and allergic diseases” (priority 1976, dated 1978)
“Also recorded” adds a separate entry of the source. Like-named read-outs stand apart in the source and are kept apart here.

Columns and labels:
[1] = test system: histamine-induced bronchoconstriction in the dog; experiment: CP: cardiopulmonary activity against histamine-induced bronchoconstriction in the dog; format: in vivo; settings: histamine challenge
Excerpt: Pretreatment with bronchodilator drugs aims to block the bronchospastic response to histamine. Each dog serves as its own control.

[2] = test system: passive cutaneous anaphylaxis in the rat; experiment: PCA: passive cutaneous anaphylaxis in the rat; format: in vivo
Protocol: PCA Antianaphylactic activity against passive cutaneous anaphylaxis in the rat, expressed as % protection against antigen-induced wheal formation.
The method used is that of Ogilvie, B. M., Immunology 12, 113-131 (1967). Reaginic […] antibodies develope in the rat following subcutaneous injection of Nippostrongylus brasiliensis larvae. Antisera, collected 28 days later are injected subcutaneously into new rats.

[3] = test system: histamine-induced bronchoconstriction in the guinea pig; experiment: BD: bronchodilator activity against histamine-induced bronchoconstriction in the guinea pig; settings: for inhibition in vivo at 10 mg/kg / inhibition in vivo at 20 mg/kg: Cavia porcellus, po, read-out: BD (guinea pig), % protection
Excerpt: BD Bronchodilator activity evaluated against histamine-induced bronchoconstriction in the guinea pig, and expressed as % protection at the stated time interval (in minutes and hours) post-drug against histamine agonist. Doses are expressed in milligrams per kilogram of body weight (mpk) per os (po) or intraperitoneally (ip).
A modification of the method of Siegmund. O.H., et al., J. Pharmacol. and Exp. Therap. 90:254-9, 1947, is used. Healthy guinea pigs weighing from 250 to 300 grams are placed four at a time and separated by wiring screening in an 11 liter plastic chamber, at the time of peak activity following drug administration. The challenge consists of histamine diphosphate (1% solution) aerosolized in a de Vilbiss -40 nebulizer at 200 mm Hg. Times for prostration are recorded.
Per cent protection is calculated as follows: [formula] wherein the times are measured in seconds.
In interpreting the BD data it should be noted that a dose giving less than 40-50% protection is not considered useful. Differences in percent protection of less than 10% are probably not significant.

[4] = test system: guinea pig tracheal chain preparation; experiment: SP: spasmolytic activity in vitro, guinea pig tracheal chain preparation; settings: Cavia porcellus, read-out: SP in vitro C, molar concentration required to produce maximum relaxation
Excerpt: SP Spasmolytic activity evaluated in vitro using guinea pig tracheal chain preparation, and expressed as the molar (M) concentration required to produce maximum relaxation. The method used in that of Castillo and de Beer, J. Pharmac. Expt. Therap. 90, 104, 1947.

albino rat = experiment: in vivo
Protocol: (§1) The LD50 was determined in three species, the mouse (male, 18-25 g), the albino rat (female, 150-200 g) and the albino guinea pig (male 180-280 g) by oral administration and in the albino rat by intraperitoneal administration. The animals are fasted overnight prior to testing. Six groups of ten animals are used; five groups are dosed with the test substance, the sixth group serves as a control and receives the drug vehicle at the highest test concentration. The compounds were administered in a 0.5% gum tragacanth solution in distilled water using a constant logarithmic increment in dose. Dose volume ranged from […].
(§2) The animals were housed five per cage (rat and guinea pig) or ten per cage (mouse) with free access to food and water. The number of dead animals was recorded daily for five consecutive days. The total mortality per group of ten for each dose level was recorded and LD50 with Confidence Limits calculated according to the method described by Weil, C.

in vivo = experiment: in vivo
Protocol: as §1, §2

LD50 mouse = format: in vivo; settings: in vivo, po
Protocol: as §1, §2

mouse = experiment: LD50 mouse; format: in vivo
Protocol: as §1, §2

[5] = test system: antigen-induced bronchconstriction in rats sensitized with N. brasliensis; experiment: AA: antiallergy (anti-anaphylactic) activity against antigen-induced bronchoconstriction in sensitized rats
Excerpt: The animals are subdivided into control and test groups. Test animals receive a drug either orally, intraperitoneally or intravenously and are challenged with intravenous antigen at fixed time intervals after dosing. Antigen-induced increases in tracheal pressure are monitored and reflect the extent of bronchoconstriction.

[6] = guinea pig, comparison with corresponding compound
[7] = Rattus norvegicus, ip, 1 h, read-out: AA (rat), % protection
[8] = Rattus norvegicus, po, 1 h, read-out: AA (rat), % protection

With CCC(C)Cn1c(=O)n(C)c(=O)c2c1nc(C)n2C(=O)OC (stereo not shown) [Compound 4387, 1,8-dimethyl-3-(2-methyl-1-butyl)-7-carbomethoxyxanthine] the “cardiopulmonary / bronchodilator activity in the dog, in words” value [1] was “significantly reduce the decrease in pulmonary compliance and increase in pulmonary resistance due to histamine administration; also recorded: about as effective as the corresponding 3-isobutyl compound (4390)”, the “Wheal Diameter, % Δ” value ([2]; 10 mg/kg po) was 41% and the “Wheal Diameter, Response (Mean ± S.E.M.)” value ([2]; 10 mg/kg po) was 1.41 ± 0.17 cm. The “Wheal Intensity, % Δ” value ([2]; 10 mg/kg po) was 33%, the “Wheal Intensity, Response (Mean ± S.E.M.)” value ([2]; 10 mg/kg po) was 1.65 ± 0.20 and the “Wheal Diameter, % Δ” value ([2]; 20 mg/kg po) was 57%. For the same molecule, the “Wheal Diameter, Response (Mean ± S.E.M.)” value ([2]; 20 mg/kg po) was 0.81 ± 0.13 cm, the “Wheal Intensity, % Δ” value ([2]; 20 mg/kg po) was 38% and the “Wheal Intensity, Response (Mean ± S.E.M.)” value ([2]; 20 mg/kg po) was 1.18 ± 0.21. The “antiallergy activity, in words” value ([2]; rat passive cutaneous anaphylaxis) was “effective antiallergy agents”, the inhibition in vivo at 10 mg/kg ([3]; 0.5 h) was 44% and the inhibition in vivo at 10 mg/kg ([3]; 1 h) was 87%. It also gave an inhibition in vivo at 20 mg/kg ([3]; 1 h) of 94%, an inhibition in vivo at 10 mg/kg ([3]; 6 h) of 59% and an inhibition in vivo at 20 mg/kg ([3]; 6 h) of 92%. For the same molecule, the inhibition in vivo at 10 mg/kg ([3]; 10 h) was 37%, the “bronchodilator effectiveness, in words” value [3, 6] was “shows greater activity; also recorded: about as effective as the corresponding 3-isobutyl compound (4390)” and the “onset and duration of action, in words” value [3, 6] was “effective at lower doses and for longer duration”. The EC (maximum relaxation) [4] was 1000 µM, the “lethality relative to 4390” value (albino rat) was “about one-half” and the LD50 (in vivo; guinea pig, po) was 27.4 mg/kg. For the same molecule, the LD50 (in vivo; in vivo, rat, ip) was 18.3 mg/kg, the LD50 (in vivo; in vivo, rat, po) was 60 mg/kg and the LD50 (LD50 mouse) was 54.9 mg/kg. The “lethality relative to 4390” value (mouse) was “about one-half”, the inhibition in vivo at 5 mg/kg [5, 7] was 55% and the inhibition in vivo at 75 mg/kg [5, 7] was 70%. For the same molecule, the inhibition in vivo at 2.5 mg/kg [5, 8] was 72%, the inhibition in vivo at 5 mg/kg [5, 8] was 68% and the inhibition in vivo at 10 mg/kg [5, 8] was 57%. For the same molecule, the “antiallergy effectiveness, in words” value ([5]; rat, comparison with 4390) was “about as effective as the corresponding 3-isobutyl compound (4390)”.
